Results: US10945435B2, “Imidazopyrimidine derivatives with sulfur containing phenyl and pyridyl substituents” (SYNGENTA PARTICIPATIONS AG, priority 2017, dated 2021)

Experiments:
Assay type in all cases: in vivo
[1] = system: Diabrotica balteata (Corn Root Worm); test: Example B4 Diabrotica balteata mortality; conditions: 96 h, application rate of 200 ppm, L2 larvae on sprayed maize sprouts, 4 days after infestation
Experimental: Diabrotica Balteata (Corn Root Worm):
(§1) Maize sprouts placed onto an agar layer in 24-well microtiter plates were treated with aqueous test solutions prepared from 10,000 ppm DMSO stock solutions by spraying. After drying, the plates were infested with L2 larvae (6 to 10 per well). The samples were assessed for mortality 4 days after infestation.

[2] = system: Spodoptera littoralis (Egyptian Cotton Leaf Worm); test: Example B16 Spodoptera littoralis feeding/contact activity; conditions: foliar, 72 h, application rate of 200 ppm, L1 larvae on sprayed cotton leaf discs, 3 days after infestation
Experimental: Spodoptera littoralis (Egyptian Cotton Leaf Worm): Feeding/Contact Activity
(§2) Cotton leaf discs were placed onto agar in 24-well microtiter plates and sprayed with aqueous test solutions prepared from 10,000 ppm DMSO stock solutions. After drying the leaf discs were infested with five L1 larvae. The samples were assessed for mortality 3 days after infestation.

[3] = system: Spodoptera littoralis (Egyptian Cotton Leaf Worm); test: Example B15 Spodoptera littoralis growth inhibition activity; conditions: foliar, 72 h, application rate of 200 ppm, L1 larvae on sprayed cotton leaf discs, 3 days after infestation, read-out: control (growth inhibition)
Experimental: Spodoptera littoralis (Egyptian Cotton Leaf Worm): Growth Inhibition Activity
as §2, with “growth inhibition in comparison to untreated samples” for “mortality”, “infestation. Control of Spodoptera littoralis by a test sample is given when the growth inhibition is higher than the untreated sample.” for “infestation.”

[4] = system: Plutella xylostella (Diamond Back Moth); test: Example B11 Plutella xylostella growth inhibition activity; conditions: 120 h, application rate of 200 ppm, L2 larvae on treated artificial diet, 5 days after infestation
Experimental: Plutella xylostella (Diamond Back Moth): Growth Inhibition Activity
(§3) 24-well microtiter plates with artificial diet were treated with aqueous test solutions prepared from 10,000 ppm DMSO stock solutions by pipetting. After drying, the plates were infested with L2 larvae (10 to 15 per well). The samples were assessed for growth inhibition in comparison to untreated samples 5 days after infestation. Control of Plutella xylostella by a test sample is given when the growth inhibition is higher than the untreated sample.

[5] = system: Diabrotica balteata (Corn Root Worm); test: Example B2 Diabrotica balteata mortality and growth inhibition; conditions: 96 h, application rate of 200 ppm, L2 larvae on sprayed maize sprouts, 4 days after infestation, read-out: effect in at least one of the two categories (mortality or growth inhibition)
Experimental: Diabrotica balteata (Corn Root Worm)
as §1, with “mortality and growth inhibition in comparison to untreated samples” for “mortality”

[6] = system: Euschistus heros (Neotropical Brown Stink Bug); test: Example B5 Euschistus heros mortality and growth inhibition; conditions: 120 h, application rate of 200 ppm, N2 nymphs on sprayed soybean leaves, 5 days after infestation, read-out: effect in at least one of the two categories (mortality or growth inhibition)
Experimental: Euschistus heros (Neotropical Brown Stink Bug)
Soybean leaves on agar in 24-well microtiter plates were sprayed with aqueous test solutions prepared from 10,000 ppm DMSO stock solutions. After drying the leaves were infested with N2 nymphs. The samples were assessed for mortality and growth inhibition in comparison to untreated samples 5 days after infestation.

[7] = system: Plutella xylostella (Diamond Back Moth); test: Example B13 Plutella xylostella mortality and growth inhibition; conditions: 120 h, application rate of 200 ppm, L2 larvae on treated artificial diet, 5 days after infestation, read-out: effect in at least one of the two categories (mortality or growth inhibition)
Experimental: Plutella xylostella (Diamond Back Moth)
as §3, with “for mortality and” for “for”, “infestation.” for “infestation. Control of Plutella xylostella by a test sample is given when the growth inhibition is higher than the untreated sample.”

[8] = system: Bemisia tabaci (Cotton White Fly); test: Example B1 Bemisia tabaci feeding/contact activity; conditions: foliar, 144 h, application rate of 200 ppm, adult white flies on sprayed cotton leaf discs, 6 days after incubation
Experimental: Bemisia tabaci (Cotton White Fly): Feeding/Contact Activity
Cotton leaf discs were placed on agar in 24-well microtiter plates and sprayed with aqueous test solutions prepared from 10,000 ppm DMSO stock solutions. After drying the leaf discs were infested with adult white flies. The samples were checked for mortality 6 days after incubation.

[9] = system: Spodoptera littoralis (Egyptian Cotton Leaf Worm); test: Example B14 Spodoptera littoralis anti-feeding activity; conditions: foliar, 72 h, application rate of 200 ppm, L1 larvae on sprayed cotton leaf discs, 3 days after infestation, read-out: control (anti-feeding effect)
Experimental: Spodoptera littoralis (Egyptian Cotton Leaf Worm): Anti-Feeding Activity
as §2, with “anti-feeding effect in comparison to untreated samples” for “mortality”, “infestation. Control of Spodoptera littoralis by a test sample is given when the anti-feedant effect is higher than the untreated sample.” for “infestation.”

[10] = system: Euschistus heros (Neotropical Brown Stink Bug); test: Example B7 Euschistus heros feeding/contact activity; conditions: 120 h, application rate of 200 ppm, N2 nymphs on sprayed soybean leaves, 5 days after infestation
Experimental: Euschistus heros (Neotropical Brown Stink Bug): Feeding/Contact Activity
Soybean leaves on agar in 24-well microtiter plates were sprayed with aqueous test solutions prepared from 10,000 ppm DMSO stock solutions. After drying the leaves were infested with N2 nymphs. The samples were assessed for mortality 5 days after infestation.

[11] = system: Myzus persicae (Green Peach Aphid); test: Example B9 Myzus persicae feeding/contact activity; conditions: foliar, 144 h, application rate of 200 ppm, mixed-age aphids on sprayed sunflower leaf discs, 6 days after infestation
Experimental: Myzus persicae (Green Peach Aphid): Feeding/Contact Activity
Sunflower leaf discs were placed onto agar in a 24-well microtiter plate and sprayed with aqueous test solutions prepared from 10,000 ppm DMSO stock solutions. After drying, the leaf discs were infested with an aphid population of mixed ages. The samples were assessed for mortality 6 days after infestation.

[12] = system: Plutella xylostella (Diamond Back Moth); test: Example B12 Plutella xylostella feeding/contact activity; conditions: 120 h, application rate of 200 ppm, L2 larvae on treated artificial diet, 5 days after infestation
Experimental: Plutella xylostella (Diamond Back Moth): Feeding/Contact Activity
24-well microtiter plates with artificial diet were treated with aqueous test solutions prepared from 10,000 ppm DMSO stock solutions by pipetting. After drying, the plates were infested with L2 larvae (10 to 15 per well). The samples were assessed for mortality 5 days after infestation.

[13] = system: Myzus persicae (Green Peach Aphid); test: Example B10 Myzus persicae systemic activity; conditions: 144 h, test rate of 24 ppm, roots of infested pea seedlings in test solution, 6 days
Experimental: Myzus persicae (Green Peach Aphid). Systemic Activity
Roots of pea seedlings infested with an aphid population of mixed ages were placed directly into aqueous test solutions prepared from 10,000 DMSO stock solutions. The samples were assessed for mortality 6 days after placing seedlings into test solutions.

[14] = system: Frankliniella occidentalis (Western Flower Thrips); test: Example B8 Frankliniella occidentalis feeding/contact activity; conditions: foliar, 168 h, application rate of 200 ppm, mixed-age population on sprayed sunflower leaf discs, 7 days after infestation
Experimental: Frankliniella occidentalis (Western Flower Thrips): Feeding/Contact Activity
Sunflower leaf discs were placed on agar in 24-well microtiter plates and sprayed with aqueous test solutions prepared from 10,000 DMSO stock solutions. After drying the leaf discs were infested with a Frankliniella population of mixed ages. The samples were assessed for mortality 7 days after infestation.

CCS(=O)(=O)c1cc(OCC(F)F)cnc1-c1cn2cnc(SC(F)(F)F)cc2n1 [Compound P4, 2-[5-(2,2-difluoroethoxy)-3-ethylsulfonyl-2-pyridyl]-7-(trifluoromethylsulfanyl)imidazo[1,2-c]pyrimidine]
≥ 80%: mortality at 200 ppm [1] | mortality at 200 ppm [2] | inhibition at 200 ppm [3] | inhibition at 200 ppm [4] | percent effect (mortality or growth inhibition) at 200 ppm [5] | percent effect (mortality or growth inhibition) at 200 ppm [6] | percent effect (mortality or growth inhibition) at 200 ppm [7] | mortality at 200 ppm [8] | pest or weed control at 200 ppm [9] | mortality at 200 ppm [10] | mortality at 200 ppm [11] | mortality at 200 ppm [12]

CCS(=O)(=O)c1cc(OC)cnc1-c1cn2cnc(SC(F)(F)F)cc2n1 [Compound P5, 2-(3-ethylsulfonyl-5-methoxy-2-pyridyl)-7-(trifluoromethylsulfanyl)imidazo[1,2-c]pyrimidine]
≥ 80%: mortality at 200 ppm [1] | mortality at 200 ppm [2] | inhibition at 200 ppm [3] | percent effect (mortality or growth inhibition) at 200 ppm [5] | percent effect (mortality or growth inhibition) at 200 ppm [6] | percent effect (mortality or growth inhibition) at 200 ppm [7] | pest or weed control at 200 ppm [9] | mortality at 200 ppm [10] | mortality at 200 ppm [11] | mortality at 200 ppm [12]

CCS(=O)(=O)c1cc(OC)cnc1-c1cn2cnc(C(F)(F)F)cc2n1 [Compound P9, 2-(3-ethylsulfonyl-5-methoxy-2-pyridyl)-7-(trifluoromethyl)imidazo[1,2-c]pyrimidine]
≥ 80%: mortality at 200 ppm [1] | mortality at 200 ppm [2] | inhibition at 200 ppm [3] | inhibition at 200 ppm [4] | percent effect (mortality or growth inhibition) at 200 ppm [5] | percent effect (mortality or growth inhibition) at 200 ppm [7] | mortality at 24 ppm [13] | pest or weed control at 200 ppm [9] | mortality at 200 ppm [11] | mortality at 200 ppm [12]

CCS(=O)(=O)c1cc(OC(C)(C)C(N)=O)cnc1-c1cn2cnc(C(F)(F)F)cc2n1 [Compound P12, 2-[[5-ethylsulfonyl-6-[7-(trifluoromethyl)imidazo[1,2-c]pyrimidin-2-yl]-3-pyridyl]oxy]-2-methyl-propanamide]
≥ 80%: inhibition at 200 ppm [3] | percent effect (mortality or growth inhibition) at 200 ppm [6] | mortality at 200 ppm [10] | mortality at 200 ppm [11]

CCS(=O)(=O)c1cc(OCSC)cnc1-c1cn2cnc(C(F)(F)F)cc2n1 [Compound P16, 2-[3-ethylsulfonyl-5-(methylsulfanylmethoxy)-2-pyridyl]-7-(trifluoromethyl)imidazo[1,2-c]pyrimidine]
≥ 80%: mortality at 200 ppm [1] | mortality at 200 ppm [2] | inhibition at 200 ppm [4] | mortality at 200 ppm [14] | percent effect (mortality or growth inhibition) at 200 ppm [5] | percent effect (mortality or growth inhibition) at 200 ppm [6] | percent effect (mortality or growth inhibition) at 200 ppm [7] | mortality at 200 ppm [8] | mortality at 24 ppm [13] | pest or weed control at 200 ppm [9] | mortality at 200 ppm [10] | mortality at 200 ppm [11]

CCS(=O)(=O)c1cc(OC(C)(C)C#N)cnc1-c1cn2cnc(SC(F)(F)F)cc2n1 [Compound P17, 2-[[5-ethylsulfonyl-6-[7-(trifluoromethylsulfanyl)imidazo[1,2-c]pyrimidin-2-yl]-3-pyridyl]oxy]-2-methyl-propanenitrile]
≥ 80%: mortality at 200 ppm [1] | mortality at 200 ppm [2] | inhibition at 200 ppm [3] | mortality at 200 ppm [14] | percent effect (mortality or growth inhibition) at 200 ppm [5] | percent effect (mortality or growth inhibition) at 200 ppm [6] | percent effect (mortality or growth inhibition) at 200 ppm [7] | mortality at 200 ppm [8] | pest or weed control at 200 ppm [9] | mortality at 200 ppm [10] | mortality at 200 ppm [11] | mortality at 200 ppm [12]

CCS(=O)(=O)c1cc(OC(C)(C)C#N)cnc1-c1cn2cnc(C(F)(F)C(F)(F)F)cc2n1 [Compound P18, 2-[[5-ethylsulfonyl-6-[7-(1,1,2,2,2-pentafluoroethyl)imidazo[1,2-c]pyrimidin-2-yl]-3-pyridyl]oxy]-2-methyl-propanenitrile]
≥ 80%: mortality at 200 ppm [1] | mortality at 200 ppm [2] | inhibition at 200 ppm [4] | mortality at 200 ppm [14] | percent effect (mortality or growth inhibition) at 200 ppm [5] | percent effect (mortality or growth inhibition) at 200 ppm [6] | percent effect (mortality or growth inhibition) at 200 ppm [7] | mortality at 200 ppm [8] | pest or weed control at 200 ppm [9] | mortality at 200 ppm [10] | mortality at 200 ppm [11] | mortality at 200 ppm [12]

CCS(=N)(=O)c1cc(OC(C)(C)C#N)cnc1-c1cn2cnc(C(F)(F)C(F)(F)F)cc2n1 (centres unmarked) [Compound P19, 2-[[5-(ethylsulfonimidoyl)-6-[7-(1,1,2,2,2-pentafluoroethyl)imidazo[1,2-c]pyrimidin-2-yl]-3-pyridyl]oxy]-2-methyl-propanenitrile]
≥ 80%: mortality at 200 ppm [1] | mortality at 200 ppm [2] | inhibition at 200 ppm [3] | inhibition at 200 ppm [4] | mortality at 200 ppm [14] | percent effect (mortality or growth inhibition) at 200 ppm [5] | percent effect (mortality or growth inhibition) at 200 ppm [6] | percent effect (mortality or growth inhibition) at 200 ppm [7] | mortality at 200 ppm [8] | mortality at 24 ppm [13] | pest or weed control at 200 ppm [9] | mortality at 200 ppm [10] | mortality at 200 ppm [11] | mortality at 200 ppm [12]
